From patent publication US11661397B2, “1,4-disubstituted imidazole derivative” (Sumitomo Pharma Co., Ltd., priority 2015, dated 2023) come the findings set out here.

In assay [1] the test system is HCT-116 cells. As to the kind of experiment: Inhibition of sphere-forming ability of cancer cells (Test Example 1). It is filed as cell-based. As to conditions: Homo sapiens, 96 h; HCT-116 spheres, non-adherent, serum-free, 4 days, CellTiter-Glo; read-out: Sphere IC50 value (concentration for 50% inhibition of cell proliferation). As to the method: (§1) HCT-116 cells were available from the American Type Culture Collection (ATCC). HCT-116 cells were cultured at 37° C. and 5% CO2 using the McCoy's 5a medium containing 10% fetal bovine serum (FBS) and 1% penicillin/streptomycin. […] The test compounds were added into each well to adjust the final concentration of DMSO to 0.1%, and the cells were cultured for 4 days.
In general terms: In ATP-based viability assays light output follows the ATP content of the culture.

Assay [2] relates to HCT-116 cells. As to the kind of experiment: Test for inhibiting sphere-forming ability of cancer cells in the presence of BSA (Test Example 2). Format: cell-based. The following applies: Homo sapiens, 96 h; HCT-116 spheres, 5% bovine serum albumin (BSA), 4 days, CellTiter-Glo; read-out: Sphere IC50 value (concentration for 50% inhibition of cell proliferation). As to the method: as §1

On to `O=C(Nc1cn(Cc2cccc(C(F)(F)F)c2)cn1)c1ccc(CO)cn1` [Example 1, 5-(Hydroxymethyl)-N-{1-[3-(trifluoromethyl)benzyl]-1H-imidazol-4-yl}picolinamide], for which the IC50 in the assay with HCT-116 cells [1] was 30 nM; in the assay with HCT-116 cells [2], 350 nM.
As for `O=C(COc1ccc(CO)nc1)Nc1cn(Cc2cc(F)c(F)c(F)c2)cn1` [Example 2], the IC50 came to 629 nM with HCT-116 cells [1] and 605 nM in the assay on HCT-116 cells [2].
In the case of `O=C(Nc1nc(CO)cs1)c1cn(Cc2cc(F)c(F)c(F)c2)cn1` [Example 3], the IC50 in the assay with HCT-116 cells [1] was below 10 nM; in the assay on HCT-116 cells [2] it was 51 nM.
In the same order, the values of `[2H]C([2H])(O)c1ccc(C(=O)Nc2cn(Cc3cccc(C(F)(F)F)c3)cn2)cn1` [Example 4, 6-[Hydroxy (^2H2)methyl]-N-{1-[3-(trifluoromethyl)benzyl]-1H-imidazol-4-yl}nicotinamide] are below 10 nM and 61 nM.
Turning to `CC(C)(O)c1ccc(C(=O)Nc2cn(Cc3cccc(C(F)(F)F)c3)cn2)cn1` [Example 5, 6-(2-Hydroxypropan-2-yl)-N-{1-[3-(trifluoromethyl)benzyl]-1H-imidazol-4-yl}nicotinamide], the IC50 with HCT-116 cells [1] came to 8400 nM.
On to `CC(O)c1ccc(C(=O)Nc2cn(Cc3cccc(C(F)(F)F)c3)cn2)cn1` (stereo not drawn) [Example 6, 6-(1-Hydroxyethyl)-N-{1-[3-(trifluoromethyl)benzyl]-1H-imidazol-4-yl}nicotinamide], for which the values for the IC50 in the assay with HCT-116 cells [1] and in the assay on HCT-116 cells [2] were 3650 nM and 6970 nM, respectively.
Take `O=C(Nc1cn(Cc2cccc(C(F)(F)F)c2)cn1)c1csc(CO)n1` [Example 7]: the IC50 with HCT-116 cells [1] is 24 nM; with HCT-116 cells [2], 520 nM.
For `O=C(Nc1cn(Cc2cc(F)c(F)c(F)c2)cn1)c1csc(CO)n1` [Example 8], the results for the IC50 in the assay on HCT-116 cells [1] and in the assay on HCT-116 cells [2] were 77 nM and 578 nM, respectively.
Consider `COCc1ccc(C(=O)Nc2cn(Cc3cccc(C(F)(F)F)c3)cn2)cn1` [Example 9], for which the IC50 in the assay with HCT-116 cells [1] came out at 5040 nM.
With `O=C(Nc1cn(Cc2cc(F)c(F)c(F)c2)cn1)c1ccc(CO)nc1` [Example 10, 6-(Hydroxymethyl)-N-[1-(3,4,5-trifluorobenzyl)-1H-imidazol-4-yl]nicotinamide], the IC50 in the assay on HCT-116 cells [1] and in the assay with HCT-116 cells [2] was 7 nM throughout.
For the compound `O=C(Nc1cn(Cc2cccc(Cl)c2)cn1)c1ccc(CO)nc1` [Example 11], the IC50 in the assay on HCT-116 cells [1] was determined as 56 nM.
Turning to `O=C(Nc1cn(Cc2cc(F)c(F)c(F)c2)cn1)c1ccc(CCO)nc1` [Example 13], the values for the IC50 in the assay on HCT-116 cells [1] and with HCT-116 cells [2] were 675 nM and 735 nM, respectively.
Regarding `O=C(Nc1cn(Cc2cccc(C(F)(F)F)c2)cn1)c1ccc(/C=C/CO)nc1` [Example 14], the IC50 in the assay on HCT-116 cells [1] was 6040 nM.
As to `C=C(CO)c1ccc(C(=O)Nc2cn(Cc3cccc(C(F)(F)F)c3)cn2)cn1` [Example 15], the IC50 with HCT-116 cells [1] is 710 nM; in the assay on HCT-116 cells [2], 5770 nM.
In the same order, the values of `CCOCc1ccc(C(=O)Nc2cn(Cc3cc(F)c(F)c(F)c3)cn2)cn1` [Example 16] are 892 nM and 1450 nM.
For `O=C(Nc1cn(Cc2cccc(C(F)(F)F)c2)cn1)c1cnc(CO)c(C(F)(F)F)c1` [Example 19, 6-(hydroxymethyl)-5-(trifluoromethyl)-N-{1-[3-(trifluoromethyl)benzyl]-1H-imidazol-4-yl}nicotinamide], the IC50 in the assay on HCT-116 cells [1] was determined as 70 nM; with HCT-116 cells [2], 403 nM.
In the same order, the values of `O=C(Nc1cn(Cc2cccc(C(F)(F)F)c2)cn1)c1cnc(CO)cn1` [Example 20] are 53 nM and 313 nM.
Regarding `O=C(Nc1cn(Cc2cccc(C(F)(F)F)c2)cn1)c1cc(CO)on1` [Example 21], the IC50 in the assay with HCT-116 cells [1] is 653 nM; in the assay on HCT-116 cells [2], 767 nM.
Take `O=C(Nc1ccc(CO)nc1)c1cn(Cc2cc(F)c(F)c(F)c2)cn1` [Example 22, N-[6-(Hydroxymethyl)pyridin-3-yl]-1-(3,4,5-trifluorobenzyl)-1H-imidazole-4-carboxamide]: the IC50 with HCT-116 cells [1] and with HCT-116 cells [2] was below 10 nM in each case.
Regarding `O=C(Nc1ccc2nc(CO)ccc2c1)c1cn(Cc2cc(F)c(F)c(F)c2)cn1` [Example 23, N-[2-(hydroxymethyl)quinolin-6-yl]-1-(3,4,5-trifluorobenzyl)-1H-imidazole-4-carboxamide], the IC50 turned out to be 79 nM in the assay on HCT-116 cells [1] and 84 nM with HCT-116 cells [2].
The like results for `NCc1ccc(C(=O)Nc2cn(Cc3cccc(C(F)(F)F)c3)cn2)cn1` [Example 24, 6-(Aminomethyl)-N-{1-[3-(trifluoromethyl)benzyl]-1H-imidazol-4-yl}nicotinamide ditrifluoroacetate] were, in that order, 61 nM and 696 nM.
As to `CC(=O)NCc1ccc(C(=O)Nc2cn(Cc3cccc(C(F)(F)F)c3)cn2)cn1` [Example 25, 6-[(Acetylamino)methyl]-N-{1-[3-(trifluoromethyl)benzyl]-1H-imidazol-4-yl}nicotinamide], the IC50 in the assay on HCT-116 cells [1] turned out to be 4480 nM; in the assay on HCT-116 cells [2] it was 4970 nM.
In the case of `CNCc1ccc(C(=O)Nc2cn(Cc3cccc(C(F)(F)F)c3)cn2)cn1` [Example 26, 6-[(Methylamino)methyl]-N-{1-[3-(trifluoromethyl)benzyl]-1H-imidazol-4-yl}nicotinamide], in the assay on HCT-116 cells [1], the IC50 came to 824 nM.
Consider `O=C(Nc1cn(Cc2cccc(C(F)(F)F)c2)cn1)c1cnc(C(O)CO)c(F)c1` (stereo not drawn) [Example 27], for which the IC50 in the assay with HCT-116 cells [1] was 695 nM; in the assay with HCT-116 cells [2] it was 6230 nM.
On to `O=C(Nc1cn(Cc2cccc(C(F)(F)F)c2)cn1)c1cnc(C(O)CO)c(Cl)c1` (stereo not drawn) [Example 28], for which the IC50 is 847 nM in the assay with HCT-116 cells [1] and 4580 nM in the assay on HCT-116 cells [2].
The like results for `O=C(Nc1cn(Cc2cccc(C(F)(F)F)c2)cn1)c1cnc(C(O)CO)c(Br)c1` (stereo not drawn) [Example 29] were, in that order, 633 nM and 3500 nM.
Consider `O=C(Nc1cn(Cc2cccc(C(F)(F)F)c2)cn1)c1cnc(CO)c(F)c1` [Example 30, 5-Fluoro-6-(hydroxymethyl)-N-{1-[3-(trifluoromethyl)benzyl]-1H-imidazol-4-yl}nicotinamide], for which the IC50 with HCT-116 cells [1] amounted to 69 nM; in the assay with HCT-116 cells [2] it was 563 nM.
The like results for `O=C(Nc1cn(Cc2cccc(C(F)(F)F)c2)cn1)c1cnc(CO)c(Cl)c1` [Example 31] were, in that order, below 10 nM and below 10 nM.
Regarding `O=C(Nc1cn(Cc2cccc(C(F)(F)F)c2)cn1)c1cnc(CO)c(Br)c1` [Example 32], the IC50 in the assay on HCT-116 cells [1] is below 10 nM; in the assay with HCT-116 cells [2], 68 nM.
As for `COc1cc(C(=O)Nc2cn(Cc3cccc(C(F)(F)F)c3)cn2)cnc1CO` [Example 33], in the assay on HCT-116 cells [1], the IC50 amounted to 9800 nM.
The same measure, in the same setting: as for `Cc1nc(CO)ccc1C(=O)Nc1cn(Cc2cccc(C(F)(F)F)c2)cn1` [Example 34], the figure is 7390 nM.
Regarding `Cc1cc(CO)ncc1C(=O)Nc1cn(Cc2cccc(C(F)(F)F)c2)cn1` [Example 35], the IC50 in the assay with HCT-116 cells [1] came out at 3760 nM; in the assay with HCT-116 cells [2], 6110 nM.
In the same order, the values of `O=C(Nc1cn(Cc2cccc(C(F)(F)F)c2)cn1)c1cnc(CO)cc1Cl` [Example 36] are 74 nM and 481 nM.
Regarding `O=C(Nc1cn(Cc2cccc(C(F)(F)F)c2)cn1)c1coc(CO)n1` [Example 37], the IC50 is 238 nM in the assay with HCT-116 cells [1] and 451 nM with HCT-116 cells [2].
In the same order, the values of `O=C(Nc1cn(Cc2cc(F)c(F)c(F)c2)cn1)c1cnc(CO)c(Br)c1` [Example 38] are 61 nM and 81 nM.
